Patent publication US8841073B2, “Methods for identifying RNA segments bound by RNA-binding proteins or ribonucleoprotein complexes” (The Rockefeller University, priority 2008, dated 2014)
One block for each molecule: values may come before it. [4sU] = 4-thiouridine

What was measured:
[1] = target: T1, FLAG/HA-tagged RBP IGF2BP1 (Homo sapiens, UniProt Q9NZI8); experiment: UV 365 nm crosslinking of RNA to FLAG/HA-IGF2BP1 in cells cultured with photoreactive nucleoside (IP, 32P-labeling, SDS gel phosphorimaging); type: cell-based; details: 100 μM photoreactive nucleoside, 365 nm UV
T1 construct: expressed in transfected cells; host or cells: Flp-In T-REx HEK293 (Invitrogen), pFRT/TO/FLAG/HA-DEST, doxycycline-induced
Experimental: FIG. 1. PURE-CLIP methodology. A Structure of photoreactive nucleosides. B Incorporation of photoreactive nucleosides to enable UV 365 nm crosslinking of RNA to RNA-binding IGF2BP1 protein. Upper panels show phosphorimages of SDS protein gels resolving 5′-32P-labeled RNA-FLAG/HA-IGF2BP1 immunoprecipitates (IPs) prepared from lysates from cells that were cultured in media in the absence or presence of 100 μM photoreactive nucleoside for 12 hrs and crosslinked with 365 nm UV. For comparison, a sample prepared from cells crosslinked at 254 nm, was included. Lower panels show immunoblots probed with an anti-HA antibody confirming uniform gel loading. C Illustration of the method. […]
Incorporation of modified photoreactive nucleoside analogues into RNA facilitates UV crosslinking to RBPs (Meisenheimer and Koch, 1997), as shown previously for in vitro transcribed site-specifically labeled RNAs (Kirino and Mourelatos, 2008; Moore and Query, 1998). Several of these photoreactive nucleosides are excitable by longer wavelength UV (>300 nm) and are readily taken up by cells, where they are incorporated into nascent transcripts without noticeable toxicity and then can be used for in vivo crosslinking (Bezerra and Favre, 1990; Favre et al., 1986; Wagenmakers et al., 1980). […]

[2] = test system: cells; details: exposure longer than 24 hrs in culture medium; cited from earlier work
[3] = target: T2, recombinant QKI protein (Homo sapiens, UniProt Q96PU8); experiment: UV 365 nm crosslinking of synthetic 4SU-containing oligoribonucleotides to recombinant QKI; type: biochemical; details: 4SU at position 2 vs position 3 of the recognition element
T2 construct: His6 (N); made in house; host or cells: E. coli STAR(DE3)
T2 sequence (Q96PU8 1-319 isoform Q96PU8-9): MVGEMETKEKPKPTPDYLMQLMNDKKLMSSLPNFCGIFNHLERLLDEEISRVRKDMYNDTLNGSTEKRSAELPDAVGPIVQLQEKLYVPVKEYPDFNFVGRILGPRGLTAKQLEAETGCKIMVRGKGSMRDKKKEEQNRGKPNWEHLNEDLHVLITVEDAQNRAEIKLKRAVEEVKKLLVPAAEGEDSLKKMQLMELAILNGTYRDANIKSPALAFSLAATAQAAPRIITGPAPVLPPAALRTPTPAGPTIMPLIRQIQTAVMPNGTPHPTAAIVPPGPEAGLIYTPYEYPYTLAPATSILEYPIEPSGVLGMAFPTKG
Description: FIG. 3. RNA recognition sites of QKI protein. A Domain structure of QKI protein. B Phosphorimage of SDS polyacrylamide gel resolving radiolabeled RNA crosslinked to FLAG/HA-QKI IPs from non-irradiated or UV-irradiated 4SU-labeled cells. […] C Two alignments of PURE-CLIP cDNA sequence reads to the corresponding regions of the 3′UTRs of the Refseq CTNNB1 and HOXD13 transcripts, respectively. Red bars indicate the QKI recognition motif and red-letter nucleotides indicate T to C sequence changes. D Weblogo of the QKI recognition motif generated by PhyloGibbs analysis of the top 100 sequence read clusters. […] F Sequences of synthetic 4SU-labeled oligoribonucleotides with QKI recognition motifs, derived from a sequence read cluster aligning to the 3′UTR of HOXD13 (see c). […]
To better understand the […] sequence conversion after sequencing of crosslinked RNA segments, we subjected synthetic 4SU-containing oligoribonucleotides together with recombinant QKI to UV 365 nm crosslinking (FIGS. 3F, G). […] RNA-binding to recombinant QKI protein was unaffected by 4SU incorporation at U9 or U10 as determined by gel-shift analysis (FIG. 11A-B), whereas regular mutation of the recognition element weakened the binding (FIG. 11C). […]

[4] = target: T3, recombinant His6-QKI protein (Homo sapiens, UniProt Q96PU8); experiment: Electrophoretic mobility shift assay (gel-shift) with recombinant QKI; type: binding
T3 construct: His6 (N); made in house; host or cells: E. coli STAR(DE3)
T3 sequence (Q96PU8 1-319 isoform Q96PU8-9): T2 sequence (Q96PU8 1-319 isoform Q96PU8-9)
Experimental: FIG. 11: Electrophoretic mobility shift assay (EMSA) to analyze binding of recombinant QKI to synthetic oligoribonucleotides with a sequence derived from a cluster identified by QKI PURE-CLIP. […] C Mutation of either one of the QKI binding sites (marked with red bars in the RNA-sequence) results in decreased affinity of QKI to the RNA. Mutation of both binding sites leads to complete loss of affinity of QKI to the RNA.
Radiolabeled RNA (1 nM) was incubated with recombinant His6-QKI protein at various concentrations and 100 ng tRNA in 20 μl of 20 mM HEPES-KOH, pH 7.4, 330 mM KCl, 10 mM MgCl2, 0.1 mM EDTA and 0.01% IGEPAL CA630 (Sigma). After addition of 6 μl loading dye (40% glycerol, bromophenol blue in binding buffer), the solution was loaded onto a native 10% acrylamide gel containing 0.5×TBE, running at 200 V for 2 h at room temperature, using 0.5×TBE as running buffer. The protein-bound RNA and the free RNA were quantified using a phosphorimager.

[5] = test system: transcripts containing miR-7- or miR-124-specific CCRs; experiment: miR-7 and miR-124 duplex transfection into HEK293 cells, mRNA stability by Affymetrix microarrays; type: cell-based, human; details: HEK293 cells stably expressing FLAG/HA-AGO2
Description: To allow for a comparison to such studies, we transfected miRNA duplexes corresponding to the deeply conserved miR-7 and miR-124 into HEK293 cells stably expressing FLAG/HA-AGO2 and performed PURE-CLIP. Before transfection, these miRNAs were only present in trace amounts in HEK293 cells, less than 0.2% of total miRNA abundance. We found 1,866 unique sequence read clusters in the miR-7 and 10,929 in the miR-124 transfection experiments. The CCRs isolated from miR-7 and miR-124 transfection experiments were enriched for the seed sequences of the transfected miRNA duplexes. These CCRs were predominantly exonic (87 and 88%, respectively), 28% mapped to the CDS, 57 and 59%, respectively, to the 3′UTR of mRNAs and only 3 and 2%, respectively, to the 5′UTR. miR-7 and miR-124 binding sites that were located in the CDS for miR-7 and -124 were also embedded in regions with unusual codon bias, similar to the binding sites of endogenous miRNA target sites (FIG. 31).
The change in mRNA stability was analyzed after miRNA duplex transfection by Affymetrix whole genome microarrays (Hausser et al., submitted). We observed that transcripts containing miR-7- or miR-124-specific CCRs were destabilized upon miRNA delivery, especially for transcripts with CCRs located in the 3′UTR (FIG. 32-33). […]

T1 sequence (Q9NZI8 whole entry): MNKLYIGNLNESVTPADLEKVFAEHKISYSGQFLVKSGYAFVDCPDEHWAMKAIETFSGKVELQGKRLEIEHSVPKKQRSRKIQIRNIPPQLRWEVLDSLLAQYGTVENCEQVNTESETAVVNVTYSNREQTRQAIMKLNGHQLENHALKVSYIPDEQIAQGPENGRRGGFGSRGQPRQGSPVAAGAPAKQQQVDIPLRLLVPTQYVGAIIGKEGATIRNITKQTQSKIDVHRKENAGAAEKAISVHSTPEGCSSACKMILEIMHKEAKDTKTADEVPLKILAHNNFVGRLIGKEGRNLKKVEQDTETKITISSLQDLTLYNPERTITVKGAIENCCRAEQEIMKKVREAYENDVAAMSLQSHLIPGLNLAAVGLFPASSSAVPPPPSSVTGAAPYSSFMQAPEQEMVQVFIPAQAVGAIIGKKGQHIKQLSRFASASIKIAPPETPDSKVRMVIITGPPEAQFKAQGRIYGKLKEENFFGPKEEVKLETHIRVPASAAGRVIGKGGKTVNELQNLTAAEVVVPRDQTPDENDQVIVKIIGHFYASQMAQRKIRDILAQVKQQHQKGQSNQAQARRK

- crosslinking efficiency of nucleoside-labeled RNA to IGF2BP1 [1]: crosslinked most efficiently
Molecule: O=c1[nH]c(=S)ccn1[C@@H]1O[C@H](CO)[C@@H](O)[C@H]1O [4SU, 4-thiouridine]

Molecule: Nc1nc2c(ncn2[C@@H]2O[C@H](CO)[C@@H](O)[C@H]2O)c(=S)[nH]1 [6SG, 6-thioguanosine]
- concentration above which cytotoxicity is noticeable [2]: above 100 μM

Molecule: U9: synthetic oligoribonucleotide with 4SU at position 2 of the QKI recognition element; GUAUGCCA(4sU)AACAAAUUCAUUAACAA (SEQ ID NO: 30) (GUAUGCCAUAACAAAUUCAUUAACAA; RNA, [4sU] at 9, backbone not given here)
- crosslinking efficiency to recombinant QKI relative to oligonucleotide U10 [3]: approximately 50 times
- RNA-binding / affinity to recombinant QKI by gel-shift analysis [4]: unaffected

Molecule: miR-7: transfected miRNA duplex, 5'-UGGAAGACUAGUGAUUUUGUUGU / 5'-CAACAAAUCACAGUCUGCCAUA (SEQ ID NO: 66, 67) (listed as RNA, chemistry not given here)
- change in mRNA stability of CCR-containing transcripts after miRNA duplex transfection [5]: destabilized
